The results in this text go back to US4620014A, “2-furylbutyrolactones and methods for using same” (priority 1983, dated 1986).

For assay [1], the system named is spleen lymphocytes from C57BL/6 mice. In words: In vitro lymphocyte stimulation assay, C57BL/6 spleen lymphocytes. It counts as cell-based, mouse. As for the experimental part:
(§1) The purpose of this assay is to challenge lymphocytes in microcultures with one or more polyclonal mitogens at concentrations that will induce mitogenesis within 72 hours of stimulation.
(§2) In the mouse model, spleens are removed from different strains of mice and the spleen cells are teased free and suspended in RPMI-1640 tissue culture medium at a concentration of usually 1×10^7 ml. These cells are dispensed at a concentration of 5.0×10^5 cells per microculture well in a 96 well flat bottom 96 well tissue culture plate. All testing of the compounds of this invention or mitogens are done in replicates of 10. The cells are then treated with PHA, Con-A, specific antigens, or buffer only. If in vitro testing is done, varying concentrations of the compounds of this invention or buffer only are added to the cells as well. After treatment with the mitogens and/or compounds of this invention, the cells are incubated for 72 hours. The response of these cells to mitogens and/or the compounds of this invention is assessed using ^14 C-thymidine labeling on the fourth day at a concentration of 0.01 μCi/well. The labeled cells are harvested using a lymphocyte harvestor and placed onto fibrous paper discs. A scintillation cocktail is added to vials contaning the discs and the results are obtained using a LKB-liquid scintillation counter (Model 1216/Rackbeta II). The data is expressed as a ratio of the cpm of the mitogen stimulated group to the control (non-mitogen) treated group=lymphocyte stimulation index (LSI).
(§3) The lymphocyte stimulation assay may be performed directly on spleen cells obtained from various strains of mice not treated with the compounds of this invention or on lymphocytes obtained from […]. […] Alternatively, the mice may be treated in vivo with the compounds of this invention by intraperitoneal multi-dose schedules, followed by sacrifice and harvesting spleen lymphocytes. These cells are then tested for their response to polyclonal mitogens or specific antigens used to immunize the mice. In this sytem however, no additional compound is added to the in vitro lymphocyte stimulation assay system.
An in vitro lymphocyte stimulation assay is performed directly on normal spleen lymphocytes removed from five normal C57BL/6 mice, using concentrations of Cpd. […] Following three days of incubation the assay is completed.
An in vitro lymphocyte stimulation assay was performed using spleen lymphocytes from normal C57BL/6 mice. The lymphocytes were treated with either 1, 5, 10, 50, or 100 μg/well of Cpd. 1 or buffer.
Cpd. 2 was tested using normal spleen lymphocytes from C57BL/6 mice. A lymphocyte stimulation assay was conducted using either 1, 5, 10, 50, or 100 μg/well […] or just buffer.
Spleen cells from C57BL/6 mice were treated, in vitro, with the crystallizing reagents, succinic acid and succinimide. Since these compounds are spontaneously released from the molecular complex in solution at a molar ratio of 2 moles of Cpds. 1, 2, or 3 per mole of the crystalline reagent, these reagents were treated in the lymphocyte stimulation assay at proper molar concentrations.
The compound of example 3, Cpd. 3, was used to treat C57BL/6 spleen lymphocytes in vitro. The lymphocytes were treated with either 1, 5, 10, 50, or 100 μg/well of Cpd. 3 or just buffer and then a lymphocyte stimulation assay was performed.

In the next assay the test system is L-1210 leukemia. Nature of the assay: Anti-cancer study, L-1210 leukemia in BDF1 mice. In kind it is in vivo, mouse. Conditions: 20 mg/kg, seven days (Table 25). The text has this:
Mice of the BDF1 strain are given an i.p. inoculation of 10^6 L-1210 leukemia cells on day 0. Twenty-four hours later, groups of 7 mice each are started on a […] treatment regimen of various doses of the compounds of this invention. The experiment is continued according to the guidelines provided under the National Cancer Institute protocol for screening new anti-cancer agents and T/C ratios (median or mean survival time of treated groups over median or mean survival time of controls) are calculated. A T/C value ≥1.25 (or 125%) is considered significant anticancer activity.
Mice of the BDF1 strain, inoculated with L-1210 leukemia cells, are treated for seven days with either 25, 50, 100, 200 or 400 mg/kg of Cpd. 1 or just buffer. The National Cancer Institute protocol for screening new anti-cancer agents is followed and T/C ratios are calculated.
Mice of the BDF1 strain, inoculated with L-1210 leukemia cells, are treated for seven days with either 100 mg/kg of Cpd. 1, 20 mg/kg of 5-fluorouracil (5-FU), a known anti-cancer agent, or just buffer. The National Cancer Institute protocol for screening new anti-cancer agents is followed and T/C ratios are calculated.

The subject of the next assay is human lymphocytes. In words: In vitro lymphocyte stimulation assay in humans. In kind it is cell-based. Conditions: 0.1-100 μg/well, PHA and Con-A. As for the experimental part:
as §1, §2
The lymphocyte stimulation assay may be performed directly on spleen cells obtained from various strains of mice not treated with the compounds of this invention or on lymphocytes obtained from […]. […] Alternatively, the mice may be treated in vivo with the compounds of this invention by intraperitoneal multi-dose schedules, followed by sacrifice and harvesting spleen lymphocytes. These cells are then tested for their response to polyclonal mitogens or specific antigens used to immunize the mice. […]

Assay [2] deals with spleen lymphocytes of C57BL/6 mice. In words: In vivo treatment, lymphocyte stimulation assay, C57BL/6 mice. Conditions: 4 days. As for the experimental part: as §1, §2, §3
Two strains of mice, C57BL/6 and BDF1 are treated for seven days with i.p. administration of either 25, 50, 100, 200, or 400 mg/kg of Cpd. 1 or just buffer. This is followed on the eighth day by a lymphocyte stimulation assay.
A comparison is made of the lymphocyte response to C57BL/6 mice treated 4 days with i.p. administration of either 50, 100, 200, 400 or 800 mg/kg of Cpd. 1, 50, 100, 200, 400 or 800 mg/kg of ascorbic acid (AA), or just buffer. This is followed on the fifth day by a lymphocyte stimulation assay.
Two strains of mice, C57BL/6 and BALB/c, are treated 4 days with i.p. administration of either 50, 100, 200, or 400 mg/kg of Cpd. 1, or just buffer. This is followed on the fifth day by a lymphocyte stimulation assay.
C57BL/6 mice were treated with four daily i.p. doses of either 50, 100, 200, or 400 mg/kg of Cpd. 1 or just buffer. On the fifth day a lymphocyte stimulation assay was performed.
Mice of the C57BL/6 strain were tested with i.p. administration of either 100, 200, 400 or 600 mg/kg of Cpd. 1 or just buffer. This was followed by removal of spleens and treatment of lymphocytes therein with mitogens PHA and Con-A.
The compound of Example 2, Cpd. 2, was tested in vivo by using C57BL/6 mice and treating them with […] or just buffer for four consecutive days by the i.p. route. On the fifth day a lymphocyte stimulation assay was performed.

Structures are written as SMILES.

`O=C(O)CCC(=O)O` [Succinic Acid, succinic acid, reference compound]: the “Lymphocyte Stimulation Index, Con-A” value in assay [1] (1.04 μg/well in vitro) is listed as 64.6; in assay [1] (2.08 μg/well in vitro), 51.1; in assay [1] (4.15 μg/well in vitro) it was 42.3; in assay [1] (8.3 μg/well in vitro), 35.6; in assay [1] (16.6 μg/well in vitro) it was 38.5. Moreover, the “Lymphocyte Stimulation Index, Control (no mitogen)” value in assay [1] (1.04 μg/well in vitro) was “.94”; in assay [1] (2.08 μg/well in vitro), 1.0; in assay [1] (4.15 μg/well in vitro) it was “.91”; in assay [1] (8.3 μg/well in vitro) it was “.91”; in assay [1] (16.6 μg/well in vitro), 1.1. For the same molecule, the “Lymphocyte Stimulation Index, PHA” value came out at 15.7 in assay [1] (1.04 μg/well in vitro); 15.3 in assay [1] (2.08 μg/well in vitro); 14.0 in assay [1] (4.15 μg/well in vitro); 12.4 in assay [1] (8.3 μg/well in vitro); 11.5 in assay [1] (16.6 μg/well in vitro). The “PHA and Con-A mitogenesis” value in assay [1] (with increased dosage, 1.04-16.6 μg/well) was “decrease in PHA and Con-A mitogenesis”.

Regarding `CN1C(=O)CCC1=O.Cc1ccc(C2(O)C(=O)OC3C(O)COC32O)o1.Cc1ccc(C2(O)C(=O)OC3C(O)COC32O)o1` (stereo not shown) [Cpd. 3], the “Lymphocyte Stimulation Index, Con-A” value is 73.2 in assay [1] (1 μg/well in vitro); 80.9 in assay [1] (5 μg/well in vitro); 89.6 in assay [1] (10 μg/well in vitro); 97.2 in assay [1] (50 μg/well in vitro); 2.88 in assay [1] (100 μg/well in vitro). Besides, the “Lymphocyte Stimulation Index, Control (no mitogen)” value in assay [1] (1 μg/well in vitro) is “.60”; in assay [1] (5 μg/well in vitro), “.64”; in assay [1] (10 μg/well in vitro), “.47”; in assay [1] (50 μg/well in vitro) it was “.27”; in assay [1] (100 μg/well in vitro) it was “.25”. The “Lymphocyte Stimulation Index, PHA” value amounted to 12.5 in assay [1] (1 μg/well in vitro); 18.5 in assay [1] (5 μg/well in vitro); 24.0 in assay [1] (10 μg/well in vitro); 4.08 in assay [1] (50 μg/well in vitro); 0.263 in assay [1] (100 μg/well in vitro). The “response to PHA” value in assay [1] (10 μg/well) is given as “significantly stimulated the response”; in assay [1] (50 and 100 μg/well), “suppressed the response”. Moreover, the “response to Con-A” value is “slightly stimulated the response” in assay [1] (50 μg/well) and “suppressed the response” in assay [1] (100 μg/well).

For the molecule `O=c1[nH]cc(F)c(=O)[nH]1` [5-FU, 5-fluorouracil, reference compound], in the assay with L-1210 leukemia, the “Median Survival Time” value stood at 30.

For `O=C1O[C@H]([C@@H](O)CO)C(O)=C1O` [AA, ascorbic acid, reference compound], the “proliferative or anti-proliferative effect” value in the assay on human lymphocytes is reported as “no significant proliferative or anti-proliferative effect”. The “proliferation with Con-A” value in assay [2] (50 mg/kg i.p.) is given as “stimulation of proliferation”. Further, in assay [2] (50-800 mg/kg i.p.), the “effect with PHA” value was “No statistically significant measurable effect”.

For the molecule `O=C1CCC(=O)N1` [Succinimide, succinimide, reference compound], in assay [1] (13.92 μg/well in vitro), the “Lymphocyte Stimulation Index, Con-A” value came out at 92.9; the “Lymphocyte Stimulation Index, Control (no mitogen)” value is given as 1.4; the “Lymphocyte Stimulation Index, PHA” value is 17.1. Also, in assay [1] (0.87-13.92 μg/well), the “effect on response to either mitogen” value was “no significant suppressive or enhancing effect”.
